Laboratory results published in ChEMBL document CHEMBL5346925, “3,4-Dihydrobenzo[e][1,2,3]oxathiazine 2,2-dioxide analogs act as potential AMPA receptor potentiators with antidepressant activity” (Eur J Med Chem, 2023).
Activity calls are given as the source filed them. The calls are words filed in the database; no cut-off is given here.

Experiments:
[1] = Tmax in Sprague-Dawley rat at 0.1 mg/kg, iv by LC-MS/MS analysis; type: ADME, organism-based; settings: in vivo
[2] = Ratio of drug concentration in brain to plasma in Sprague-Dawley rat at 1 mg/kg, po measured after 0.50 hrs by LC-MS/MS analysis; type: ADME, organism-based; settings: read-out: BPR
[3] = molecular target: T1, Glutamate receptor ionotropic, AMPA (Rattus norvegicus) (UniProt P19491+P19492+P19493+P19490); assay: Agonist activity at AMPA receptor in rat Primary neuron cells assessed as increase in fluorescence level at 1 uM incubated for 1 hr by calcium 2+ influx assay relative to s-AMPA coupled TAK-137; type: cell-based
[4] = MRT (0 to t) in Sprague-Dawley rat at 0.1 mg/kg, iv by LC-MS/MS analysis; type: ADME, organism-based; settings: in vivo
[5] = Drug concentration in Sprague-Dawley rat brain at 1 mg/kg, po measured after 1 hr by LC-MS/MS analysis; type: ADME, organism-based; settings: read-out: Ct
[6] = Tmax in Sprague-Dawley rat at 1 mg/kg, po by LC-MS/MS analysis; type: ADME, organism-based; settings: in vivo
[7] = Ratio of drug concentration in brain to plasma in Sprague-Dawley rat at 1 mg/kg, po measured after 24 hrs by LC-MS/MS analysis; type: ADME, organism-based; settings: read-out: BPR
[8] = AUC (0 to infinity) in Sprague-Dawley rat at 0.1 mg/kg, iv by LC-MS/MS analysis; type: ADME, organism-based; set-up: dose 0.1 mg/kg, route iv; settings: in vivo
[9] = Drug concentration in Sprague-Dawley rat plasma at 1 mg/kg, po measured after 4 hr by LC-MS/MS analysis; type: ADME, organism-based
[10] = Drug concentration in Sprague-Dawley rat plasma at 1 mg/kg, po measured after 2 hr by LC-MS/MS analysis; type: ADME, organism-based
[11] = molecular target: T1, Glutamate receptor ionotropic, AMPA (Rattus norvegicus); assay: Agonist activity at AMPA receptor in rat Primary neuron cells relative to control; type: cell-based; settings: filed as agonist
[12] = Ratio of drug concentration in brain to plasma in Sprague-Dawley rat at 1 mg/kg, po measured after 2 hrs by LC-MS/MS analysis; type: ADME, organism-based; settings: read-out: BPR
[13] = Drug concentration in Sprague-Dawley rat brain at 1 mg/kg, po measured after 4 hrs by LC-MS/MS analysis; type: ADME, organism-based; settings: read-out: Ct
[14] = Toxicity in mouse assessed as histopathological changes in lung at 0.2 to 0.4 mg/kg, ip administered once daily for 2 weeks and measured after 15 days by H and E staining based analysis; type: organism-based; settings: in vivo, 360 h, dose 0.2-0.4 mg/kg, time 15 day
[15] = Toxicity in mouse assessed as change in body weight at 0.2 to 0.4 mg/kg, ip administered once daily for 2 weeks; type: organism-based; settings: in vivo, 336 h, dose 0.2-0.4 mg/kg
[16] = Volume of distribution at steady state in Sprague-Dawley rat at 0.1 mg/kg, iv by LC-MS/MS analysis; type: ADME, organism-based; settings: in vivo, read-out: Vdss
[17] = Clearance in Sprague-Dawley rat at 0.1 mg/kg, iv by LC-MS/MS analysis; type: ADME, organism-based; settings: in vivo
[18] = Drug concentration in Sprague-Dawley rat plasma at 1 mg/kg, po measured after 24 hr by LC-MS/MS analysis; type: ADME, organism-based
[19] = Toxicity in mouse assessed as histopathological changes in heart at 0.2 to 0.4 mg/kg, ip administered once daily for 2 weeks and measured after 15 days by H and E staining based analysis; type: organism-based; settings: in vivo, 360 h, dose 0.2-0.4 mg/kg, time 15 day
[20] = Drug concentration in Sprague-Dawley rat brain at 1 mg/kg, po measured after 0.50 hr by LC-MS/MS analysis; type: ADME, organism-based; settings: read-out: Ct
[21] = Toxicity in mouse assessed as histopathological changes in spleen at 0.2 to 0.4 mg/kg, ip administered once daily for 2 weeks and measured after 15 days by H and E staining based analysis; type: organism-based; settings: in vivo, 360 h, dose 0.2-0.4 mg/kg, time 15 day
[22] = tested on: Mus musculus; assay: Antidepressant activity in chronic restraint induced depressive mouse assessed as rescue in immobility time at 0.03 to 0.05 mg/kg administered for 1 day after 14th day by forced swimming test; type: functional, organism-based; settings: dose 0.03-0.05 mg/kg
[23] = Drug concentration in Sprague-Dawley rat brain at 1 mg/kg, po measured after 8 hrs by LC-MS/MS analysis; type: ADME, organism-based; settings: read-out: Ct
[24] = Drug concentration in Sprague-Dawley rat brain at 1 mg/kg, po measured after 2 hrs by LC-MS/MS analysis; type: ADME, organism-based; settings: read-out: Ct
[25] = Drug concentration in Sprague-Dawley rat plasma at 1 mg/kg, po measured after 6 hr by LC-MS/MS analysis; type: ADME, organism-based
[26] = Ratio of drug concentration in brain to plasma in Sprague-Dawley rat at 1 mg/kg, po measured after 0.25 hrs by LC-MS/MS analysis; type: ADME, organism-based; settings: read-out: BPR
[27] = AUC (0 to t) in Sprague-Dawley rat at 0.1 mg/kg, iv by LC-MS/MS analysis; type: ADME, organism-based; set-up: dose 0.1 mg/kg, route iv; settings: in vivo
[28] = molecular target: Glutamate receptor ionotropic, AMPA (Rattus norvegicus, UniProt P19490+P19491+P19492+P19493); assay: Agonist activity at AMPA receptor in rat Primary neuron cells; type: cell-based
[29] = Oral bioavailability in Sprague-Dawley rat at 1 mg/kg by LC-MS/MS analysis; type: ADME, organism-based; settings: in vivo
[30] = AUC (0 to t) in Sprague-Dawley rat at 1 mg/kg, po by LC-MS/MS analysis; type: ADME, organism-based; set-up: dose 1 mg/kg, route po; settings: in vivo
[31] = Ratio of drug concentration in brain to plasma in Sprague-Dawley rat at 1 mg/kg, po measured after 8 hrs by LC-MS/MS analysis; type: ADME, organism-based; settings: read-out: BPR
[32] = Ratio of drug concentration in brain to plasma in Sprague-Dawley rat at 1 mg/kg, po measured after 4 hrs by LC-MS/MS analysis; type: ADME, organism-based; settings: read-out: BPR
[33] = molecular target: T1, Glutamate receptor ionotropic, AMPA (Rattus norvegicus); assay: Agonist activity at AMPA receptor in rat Primary neuron cells assessed as potentiation of s-AMPA induced calcium flux at 1 uM incubated for 1 hr by calcium 2+ influx assay relative to s-AMPA coupled TAK-137; type: cell-based; settings: filed as agonist
[34] = Toxicity in mouse assessed as histopathological changes in liver at 0.2 to 0.4 mg/kg, ip administered once daily for 2 weeks and measured after 15 days by H and E staining based analysis; type: organism-based; settings: in vivo, 360 h, dose 0.2-0.4 mg/kg, time 15 day
[35] = Cmax in Sprague-Dawley rat at 0.1 mg/kg, iv by LC-MS/MS analysis; type: ADME, organism-based; set-up: dose 0.1 mg/kg, route iv; settings: in vivo
[36] = Drug concentration in Sprague-Dawley rat brain at 1 mg/kg, po measured after 0.25 hr by LC-MS/MS analysis; type: ADME, organism-based; settings: read-out: Ct
[37] = MRT (0 to infinity) in Sprague-Dawley rat at 0.1 mg/kg, iv by LC-MS/MS analysis; type: ADME, organism-based; settings: in vivo
[38] = Ratio of drug concentration in brain to plasma in Sprague-Dawley rat at 1 mg/kg, po measured after 1 hrs by LC-MS/MS analysis; type: ADME, organism-based; settings: read-out: BPR
[39] = MRT (0 to infinity) in Sprague-Dawley rat at 1 mg/kg, po by LC-MS/MS analysis; type: ADME, organism-based; settings: in vivo
[40] = Drug concentration in Sprague-Dawley rat brain at 1 mg/kg, po measured after 6 hrs by LC-MS/MS analysis; type: ADME, organism-based; settings: read-out: Ct
[41] = Drug concentration in Sprague-Dawley rat brain at 1 mg/kg, po measured after 24 hrs by LC-MS/MS analysis; type: ADME, organism-based; settings: read-out: Ct

Q: Which Tmax [1] does the source give for `O=S1(=O)NCc2cccc(-c3ccc(-c4ccccc4F)cc3)c2O1` here?
A: 4.8 min

Q: And the Kp at 0.5 h [2]?
A: 1.08

Q: And the Activity [3]?
A: -2.6%

Q: And the MRT last [4]?
A: 1.46 h

Q: And the concentration at 1 h [5]?
A: 217 ng/g

Q: And the Tmax [6]?
A: 0.5 h

Q: What about the Kp at 24 h [7] of the same molecule?
A: 1.48

Q: And the AUC(0-inf) [8]?
A: 129 ng·h/mL

Q: What about the concentration at 4 h [9] of the same molecule?
A: 79.3 ng/mL

Q: And the concentration at 2 h [10]?
A: 62.3 ng/mL

Q: What about the Emax [11] of the same molecule?
A: 137%

Q: And the Kp at 2 h [12]?
A: 2.15

Q: And the concentration at 4 h [13]?
A: 120 ng/g

Q: And the Activity [14]?
A: Non-Toxic

Q: What about the Activity [15] of the same molecule?
A: Non-Toxic

Q: And the Vd [16]?
A: 1.72 L/kg

Q: What about the clearance [17] of the same molecule?
A: 12.9 mL/min/kg

Q: And the concentration at 24 h [18]?
A: 3.96 ng/mL

Q: What about the Activity [19] of the same molecule?
A: Non-Toxic

Q: And the concentration at 0.5 h [20]?
A: 150 ng/g

Q: What about the Activity [21] of the same molecule?
A: Non-Toxic

Q: And the Activity [22]?
A: Active

Q: And the concentration at 8 h [23]?
A: 37.2 ng/g

Q: And the concentration at 2 h [24]?
A: 133 ng/g

Q: What about the concentration at 6 h [25] of the same molecule?
A: 54.2 ng/mL

Q: What about the Kp at 0.25 h [26] of the same molecule?
A: 0.59

Q: What about the AUC(0-t) [27] of the same molecule?
A: 120 ng·h/mL

Q: What about the EC50 [28] of the same molecule?
A: 178 nM

Q: And the bioavailability [29]?
A: 67.2%

Q: What about the AUC(0-t) [30] of the same molecule?
A: 805 ng·h/mL

Q: What about the Kp at 8 h [31] of the same molecule?
A: 1.5

Q: And the Kp at 4 h [32]?
A: 1.55

Q: What about the Activity [33] of the same molecule?
A: 80.2%

Q: And the Activity [34]?
A: Non-Toxic

Q: What about the Cmax [35] of the same molecule?
A: 152 ng/mL

Q: And the concentration at 0.25 h [36]?
A: 74.7 ng/g

Q: What about the MRT inf [37] of the same molecule?
A: 2.22 h

Q: What about the Kp at 1 h [38] of the same molecule?
A: 1.63

Q: And the MRT inf [39]?
A: 6.08 h

Q: And the concentration at 6 h [40]?
A: 93 ng/g

Q: What about the concentration at 24 h [41] of the same molecule?
A: 6.05 ng/g
